Measurements from patent publication US20170128412A1, “SYSTEM AND METHOD FOR IMPROVED BLOOD CIRCULATION AND MAINTAINING MITOCHONDRIAL ENERGY PRODUCTION” (priority 2015, published 2017).

Columns and labels:
[1] = DPPH radical removal ability; type: biochemical; conditions: for IC50: DPPH radical removal
Procedure: Chart 3 indicates the diphenylpicrylhydrazl (DPPH) radical removal ability of torolox, tocotrienol, α-tocopherol, and coenzyme Q10. The reaction composition was carried out in a DPPH solution comprising 8 mg DPPH per 100 ml of 50% ethanol. The total reaction composition comprised 0.2 ml of the specimen (torolox, tocotrienol, α-tocopherol, or coenzyme Q10) and 1.8 ml of the aforementioned DPPH solution. The total reaction composition reacted at room temperature in a dark place for 30 minutes. The absorbance measurement was carried out at 517 nm.

[2] = Linoleate peroxidative reaction inhibition (AAPH, linoleate micellar solution); type: biochemical; conditions: for inhibition rate for linoleate hydroperoxide generation: as stated in the description ("Studies indicate"); for Inhibition rate (%): specimen 25 μM
Procedure: Chart 4 indicates the linoleate peroxidative reaction inhibition action of tocotrienol, a-tocopherol, and Coenzyme Q10. The linoleate micellar solution comprised 300mM linoleate, 5 mM 2,2′-Azobis(2-amidinopropane) dihydrochloride (AAPH), and a specimen (tocotrienol, α-tocopherol, or Coenzyme Q10) dissolved in 0.3% Lubrol Px—20 mM sodium phosphate buffer (pH 7.4). The reaction composition reacted at room temperature for one hour, and then 0.5 ml of methanol was added to the composition, and then 2.0 ml of 70% methanol was added to the composition. The absorbance measurement was conducted at 234 nm.

COC1=C(OC)C(=O)C(C/C=C(\C)CC/C=C(\C)CC/C=C(\C)CC/C=C(\C)CC/C=C(\C)CC/C=C(\C)CC/C=C(\C)CC/C=C(\C)CC/C=C(\C)CCC=C(C)C)=C(C)C1=O [Coenzyme Q10, coenzyme Q10]
DPPH inhibition, result in words [1]: did not exhibit inhibition action
Inhibition rate (%) ([1]; specimen 25 μM): <0%
Inhibition rate (%) ([1]; specimen 50 μM): <0%
Inhibition rate (%) ([1]; specimen 100 μM): <0%
Linoleate peroxidation inhibition, result in words [2]: did not exhibit inhibition action
inhibition rate for linoleate hydroperoxide generation [2]: no such inhibition

tocotrienol
DPPH inhibition, result in words [1]: approximately the same level as a-tocopherol
IC50 [1]: 55 µM
Inhibition rate (%) ([1]; specimen 25 μM): 16.3%
Inhibition rate (%) ([1]; specimen 50 μM): 41%
Inhibition rate (%) ([1]; specimen 100 μM): 79.8%
Linoleate peroxidation inhibition, result in words [2]: inhibition at the same level as a-tocopherol
inhibition rate for linoleate hydroperoxide generation [2]: about 40%
Inhibition rate (%) [2]: 42.2%

Cc1c(C)c2c(c(C)c1O)CC[C@@](C)(CCC[C@H](C)CCC[C@H](C)CCCC(C)C)O2 [α-Tocopherol, α-tocopherol]
IC50 [1]: 51.1 µM
Inhibition rate (%) ([1]; specimen 25 μM): 15.2%
Inhibition rate (%) ([1]; specimen 50 μM): 41%
Inhibition rate (%) ([1]; specimen 100 μM): 87.6%
Inhibition rate (%) [2]: 42.2%

Cc1c(C)c2c(c(C)c1O)CCC(C)(C(=O)O)O2 (centres unmarked) [Torolox, torolox]
IC50 [1]: 43.8 µM
Inhibition rate (%) ([1]; specimen 25 μM): 19.1%
Inhibition rate (%) ([1]; specimen 50 μM): 48.2%
Inhibition rate (%) ([1]; specimen 100 μM): 94.9%
